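The compound was tested at five concentrations on cells cultured in 96-well plates, with a 48-hour exposure period. Abbreviation: GI50, concentration required for 50% inhibition of growth.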 Active and inactive are the calls of the source. No stated cut-off is given here; in the data, active = GI50 up to about 1.1 µM and inactive = higher.
Experiments:
Assay in all cases: inhibition of tumour cell growth, NCI panel, 48 h
A549 = tested on: A549
CCRF-CEM = tested on: CCRF-CEM
HL-60 = tested on: HL-60
HOP-62 = tested on: HOP-62
Hs-578T = tested on: Hs-578T
IGROV-1 = tested on: IGROV-1
KM12 = tested on: KM12
M14 = tested on: M14
NCI-H23 = tested on: NCI-H23
NCI-H522 = tested on: NCI-H522
OVCAR-5 = tested on: OVCAR-5
RXF 393 = tested on: RXF 393
SF-268 = tested on: SF-268
SF-295 = tested on: SF-295
SK-MEL-28 = tested on: SK-MEL-28
SK-MEL-2 = tested on: SK-MEL-2
SK-OV-3 = tested on: SK-OV-3
SW-620 = tested on: SW-620
UACC-257 = tested on: UACC-257
CAKI-1 = tested on: CAKI-1

Compound	GI50 (A549)	GI50 (CCRF-CEM)	GI50 (HL-60)	GI50 (HOP-62)	GI50 (Hs-578T)	GI50 (IGROV-1)	GI50 (KM12)	GI50 (M14)	GI50 (NCI-H23)	GI50 (NCI-H522)	GI50 (OVCAR-5)	GI50 (RXF 393)	GI50 (SF-268)	GI50 (SF-295)	GI50 (SK-MEL-28)	GI50 (SK-MEL-2)	GI50 (SK-OV-3)	GI50 (SW-620)	GI50 (UACC-257)	GI50 (CAKI-1)
CCNC(=S)N/N=C/c1ccccn1	7.62 µM (inactive)	0.957 µM (active)	3.74 µM (inactive)	6.12 µM (inactive)	> 100 µM (inactive)	5.11 µM (inactive)	8.67 µM (inactive)	9.4 µM (inactive)	6.56 µM (inactive)	0.579 µM (active)	15.4 µM (inactive)	19 µM (inactive)	2.4 µM (inactive)	7.14 µM (inactive)	16.7 µM (inactive)	42.2 µM (inactive)	5.07 µM (inactive)	6 µM (inactive)	6.65 µM (inactive)	
N=C(N)NCC(N)C(=O)O (centres undefined)	> 100 µM (inactive)		> 100 µM (inactive)	> 100 µM (inactive)	> 100 µM (inactive)	> 100 µM (inactive)	> 100 µM (inactive)	> 100 µM (inactive)	> 100 µM (inactive)	> 100 µM (inactive)	> 100 µM (inactive)	> 100 µM (inactive)	> 100 µM (inactive)	> 100 µM (inactive)	> 100 µM (inactive)	> 100 µM (inactive)	> 100 µM (inactive)	> 100 µM (inactive)	> 100 µM (inactive)	> 100 µM (inactive)
CC(C)CNc1nc2ncnc(N)c2[nH]1	> 100 µM (inactive)	> 100 µM (inactive)	< 0.01 µM (active)	> 100 µM (inactive)	> 100 µM (inactive)	> 100 µM (inactive)	> 100 µM (inactive)	> 100 µM (inactive)	> 100 µM (inactive)	> 100 µM (inactive)	> 100 µM (inactive)	> 100 µM (inactive)	> 100 µM (inactive)	> 100 µM (inactive)	> 100 µM (inactive)	> 100 µM (inactive)	> 100 µM (inactive)	> 100 µM (inactive)	> 100 µM (inactive)	> 100 µM (inactive)
CC1=C2c3ccccc3N(C(=O)/C=C/C(=O)O)[C@H]2[C@H]2C(=O)OC(=O)[C@H]2C1	> 10 µM (inactive)	> 10 µM (inactive)	> 10 µM (inactive)	> 10 µM (inactive)	> 10 µM (inactive)	> 10 µM (inactive)	> 10 µM (inactive)	> 10 µM (inactive)	> 10 µM (inactive)	> 10 µM (inactive)	> 10 µM (inactive)	> 10 µM (inactive)	> 10 µM (inactive)	> 10 µM (inactive)	> 10 µM (inactive)	> 10 µM (inactive)	> 10 µM (inactive)	> 10 µM (inactive)		> 10 µM (inactive)
COC1OC2COC1(OC)C1OC(C)(C)OC21 (centres undefined)	> 100 µM (inactive)	> 100 µM (inactive)		> 100 µM (inactive)	> 100 µM (inactive)	> 100 µM (inactive)	> 100 µM (inactive)	> 100 µM (inactive)	> 100 µM (inactive)	> 100 µM (inactive)	> 100 µM (inactive)	> 100 µM (inactive)	> 100 µM (inactive)	> 100 µM (inactive)	> 100 µM (inactive)	> 100 µM (inactive)	> 100 µM (inactive)	> 100 µM (inactive)	> 100 µM (inactive)	> 100 µM (inactive)
O=C(CCC(NC(=O)OCc1ccccc1)C(=O)OCc1ccccc1)Nc1cccc(OCc2ccccc2)c1 (centres undefined)	35.7 µM (inactive)	27.3 µM (inactive)	15.4 µM (inactive)	28.6 µM (inactive)	18.4 µM (inactive)	30.3 µM (inactive)	34.8 µM (inactive)	20.4 µM (inactive)	20.3 µM (inactive)	18.7 µM (inactive)	28.6 µM (inactive)	23.8 µM (inactive)	28.6 µM (inactive)	59.6 µM (inactive)	40.4 µM (inactive)		67.3 µM (inactive)	33.6 µM (inactive)	23.7 µM (inactive)	31.2 µM (inactive)
FC(F)(F)c1ccc2c(c1)nc1n2C(c2c(Cl)cccc2Cl)SC1 (centres undefined)	18.2 µM (inactive)		23.8 µM (inactive)	15.4 µM (inactive)	19.7 µM (inactive)	17.3 µM (inactive)	12.2 µM (inactive)	16.1 µM (inactive)	20.5 µM (inactive)	22 µM (inactive)	15.5 µM (inactive)	14.4 µM (inactive)	19.1 µM (inactive)	16.6 µM (inactive)	14.4 µM (inactive)	17.7 µM (inactive)	25.8 µM (inactive)	24.3 µM (inactive)	18.9 µM (inactive)	14.9 µM (inactive)

Source: ChEMBL document CHEMBL1201862, “PubChem BioAssay data set” (2004)
